In data set [1] the test system is cell lines from other cancer types (osteosarcoma, breast, lung). The data set is described as follows: Cell morphology studies (brightfield). It counts as cell-based, human. Particulars: 25 µM, 48 h. The text has this:
Brightfield images were captured using a Leica DMi8 microscope with a 10X or 20X objective (HC PL FLUOTAR 10X/0.45 or 20X/0.75) equipped with a Leica DFC9000GT camera, and processed with a Leica Application Suite X (LAS X) Life Science Microscope Software (v3.5.5.19976, RRID:SCR_013673).

Data set [2] concerns SW620 cells. Nature of the data set: DHODH-dependent respiration (permeabilized cells). Format: cell-based, human. As to conditions: 24 h; NK-A 17E-233I 25 µM, Brequinar 100 µM; excess exogenous DHO. The procedure:
Cells were resuspended in MiR05 medium and transferred into the chambers of the Oxygraph-2k instruments. The OCR in digitonin-permeabilized cells was monitored in the presence of the complex I inhibitor (0.5 μM rotenone), 1 mM DHO, 3 mM ADP, 10 μM cytochrome c, and 30 μM Leflunomide. DHODH-mediated respiration was calculated by subtracting the residual respiration rate after the addition of 30 μM Leflunomide from the respiration rate measured in the presence of 0.5 μM rotenone, 1 mM DHO, 3 mM ADP, and 10 μM cytochrome c.

For data set [3], the system named is colorectal cancer cells. The data set is described as follows: Flow cytometry-based cell cycle analysis. More on the design: species or system human. As to the method:
Cancer cells (3 × 10^4) were cultured in 48-well plates and treated with DMSO or NK-A 17E-233I (25 µM) for 24 h. Following treatment, all wells were washed with PBS (#P4417; Sigma-Aldrich), and the cells were collected in Eppendorf tubes. The cells were harvested using 0.25% trypsin (#25200056; ThermoScientific) and 0.02% EDTA (1:1) (#17892; ThermoFisher Scientific) for 2 min, followed by the addition of DMEM. The tubes were then centrifuged at 500 × g for 5 min. The supernatant was discarded, and the pellets were fixed in 70% cold ethanol and stored at -20 °C for at least 1 h. The pellets were resuspended in 1 mL PBS and centrifuged at 500 × g at 4 °C for 5 min. The supernatant was discarded once again, and the pellets were subsequently reconstituted in a solution containing propidium iodide (PI; #25,535–16-4, Merck) and RNase (#N8080119, Applied Biosystems), followed by storage at 4 °C overnight. Cell cycle analysis was conducted using a CytoFLEX flow cytometer (Beckman Coulter; 405 nm laser). Cells were gated based on size and granularity on a forward scatter (FSC)/side scatter (SSC) plot, with cell debris excluded from the analysis. Mean fluorescence intensity from 1 × 10^4 cells was recorded. Data analysis was conducted using FlowJo software v10.8.1 (BD Life Sciences).
For orientation: A flow cytometer gives signals particle by particle.

In data set [4] the test system is colorectal cancer cells. Nature of the data set: Western blot. Format: cell-based, human. The procedure:
Cancer cells (2.2 × 10^6) were cultured in 100-mm Petri dishes and treated with DMSO or NK-A 17E-233I (25 µM) for 48 h. Cells were harvested by scrapping into 2 × Laemmli buffer (4% SDS, 20% glycerol, 125 mM Tris–HCl, pH 6.8) and heated at 100 °C for 5 min. A 4 × Laemmli sample buffer containing β-mercaptoethanol was added to the cell lysates. The proteins were separated using sodium dodecyl sulfate polyacrylamide gel electrophoresis (SDS-PAGE) and subsequently transferred to polyvinylidene fluoride (PVDF) membranes (#88518; Thermo Fisher Scientific) following the manufacturer’s protocols. The membranes were blocked at room temperature for 1 h with 5% dried skimmed milk in Tris-buffered saline with Tween-20 (TBS-T) (20 mM Tris–HCl, pH 7.5, 150 mM NaCl, 0.1% Tween-20), and the blots were incubated with the corresponding antibodies at a dilution of 1:1000–1:3000 in a blocking buffer at 4 °C overnight.
Primary antibodies utilized in this study included: anti-human DHODH (#SC-166348; Santa Cruz), anti–CHK1-pS345 (#2348; Cell Signaling), anti-POLD2 (#29765–1-AP; Proteintech), anti-POLD1 (#15646–1-AP; Proteintech), anti-p53 (#SC-126; Santa Cruz), anti-KRAS, clone 4F3 (#SAB1404011; Sigma-Aldrich), anti-GAPDH (#ab9489; Abcam), anti–α-tubulin (#T9026; Sigma-Aldrich), anti-BAX (#SC-23959; Santa Cruz), anti-cytochrome c (#66264–1-IG; Proteintech), anti-DR5 (#3696; Cell Signaling, dilution 1:500), anti–caspase-8 (#SC-56070; Santa Cruz), and anti–caspase-3 (#9662; Cell Signaling, dilution 1:500). The membranes were incubated at room temperature for 1 h with secondary antibodies (diluted 1:3000–5000), either anti-rabbit (#A0545; Sigma-Aldrich) or anti-mouse IgG-horseradish peroxidase-conjugated (#A9044; Sigma-Aldrich), in TBS-T. The images were analyzed and quantified using ImageStudio software (LI-COR) or ImageQuant 10.2 TL analysis software (Cytiva Life Sciences).

With `COc1cc(C)c(Oc2cc(C)cc(O)c2O)c(O)c1` [NK-A 17E-233I], in data set [1], the cytotoxic effects entry is reported as “cytotoxic effects”. Also, the “DHODH-mediated oxygen consumption rate” value in data set [2] was “reduced”. The cell cycle distribution result in data set [3] (25 µM) was “arrest of colorectal cancer cells in the S-phase and an increase in sub-G1 cell populations”. Also, in data set [3] (washout 12 h, NK-A 17E-233I 25 µM, HU 1 mM), the “cell cycle after washout” value is “remained arrested and/or underwent cell death”. In addition, in data set [4] (25 µM), the “expression of wild-type p53 protein” value is “without influencing the expression” and the “phosphorylation of CHK1 (pS345)” value is given as “confirmed the phosphorylation of CHK1”. In data set [4] (25 µM, 48 h), the “expression levels of DHODH” value was “did not observe a change”; the “levels of apoptotic markers (DR5, caspase-8, Bax, cytochrome c, caspase-3)” value is “increased levels”; the “protein expression levels of POLD1 and POLD2” value is listed as “reductions”. In addition, the “expression of KRAS G13D mutant protein” value in data set [4] (HCT116 cells) is “reduced”. In addition, in data set [4] (NK-A 17E-233I 25 µM, Brequinar), the “levels of p53-mutant protein” value is “reduced”. Also, the “expression of KRAS G12V mutant protein” value in data set [4] (SW620 cells) was “reduced”.

(Values after paper PMC12534982 (Journal of Experimental & Clinical Cancer Research : CR, 2025).)
